According to PMC8686256, “DZNep promotes mouse bone defect healing via enhancing both osteogenesis and osteoclastogenesis” (Stem Cell Research & Therapy, 2021):

Key:
Assay type in all cases: cell-based, mouse
[1] = test system: osteoclast-related genes in BMMs; assay: qPCR of osteoclast-related genes in BMMs
Description: BMMs were cultured in 6-well plates at the density of 2 × 10^5 cells/well in α-MEM supplemented with M-CSF (30 ng/ml), RANKL (50 ng/ml). The cells were then treated with or without 25 nM DZNep for 0, 1, 3, 5 days, or with various concentrations of DZNEP (0, 6.25, 25 nM) for 5 days, or with negative control siRNA, negative control siRNA with DZNep, and Foxc1 small interfering RNA (siRNA) with DZNep for 5 days. Once the culture completed, the Axygen RNA Miniprep Kit (Axygen, Union City, CA, USA) was used to extract the total RNA. BMSC were seeded in a 6-well plate at a number of 4 × 10^5 cells/well and treated with 0, 25, 50, 100 nM of DZNep combined with osteoblast-cultured medium for 24 h, or with or without 100 nM DZNep combined with osteoblast-cultured medium for 0 and 7 days, or with negative control siRNA, negative control siRNA with DZNep, and Wnt4 small interfering RNA (siRNA) with DZNep combined with osteoblast-cultured medium for 7 days. Once the culture completed, the Axygen RNA Miniprep Kit (Axygen, Union City, CA, USA) was used to extract the total RNA. After reverse transcription to obtain cDNA from the RNA template by using the Prime Script RT reagent Kit was finished. The real-time PCR assay was subsequently performed by using the SYBR® Premix Ex Taq™ II on an ABI 7500 Sequencing Detection System (Applied Biosystems, Foster City, CA). Specifically, total volume of 10 μl liquid consisted by 5 μl of SYBR® Premix Ex Taq™ II, 1 μl of diluted cDNA, 0.4 μl of mixed forward and reverse primer, and 3.6 μl of ddH2O was added into each hole of 384 PCR plate. Conditions of the 40 cycles were: 95 °C for 5 s and 60 °C for 30 s. The melting curves and reverse transcription PCR (RT-PCR) were the methods to detect the specificity of amplification product. Each target’s quantity, run in triplicate, was normalized to Actin Beta (Actb). […]

[2] = test system: BMMs; assay: RANKL-induced osteoclast differentiation, TRAP staining
Description: To evaluate the role of DZNep on osteoclastogenesis, BMMs were seeded into, in triplicate, a 96-well plate at the density of 8 × 10^3 cells/well with complete α-MEM for one day. Afterward, the culture medium was replaced by the complete α-MEM containing different concentrations of DZNep (control, 3.125, 6.25, 12.5, and 25 nM) and RANKL (50 ng/ml) to stimulate osteoclast differentiation. Cells untreated with DZNep were included as the control group. Moreover, the BMMs treated with or without DZNep for various days were also analyzed. For EZH2 gene knockdown studies, the cells were transfected with virus constructed of different EZH2 short hairpin RNA (shRNA) and negative control shRNA by mixed with polybrene (final concentration of 10ug/ml) for 48 h. The transfection mixture was then replaced by complete α-MEM added with puromycin for 24 h, and BMMs were then seeded into a 96-well plate at the density of 1 × 10^4 cells/well with complete α-MEM. The culture medium was then replaced every 2 days until the matured osteoclasts could be observed in the plate. For Foxc1 inhibition experiment, the cells were separately transfected with negative control siRNA, negative control siRNA with DZNep, and Foxc1 small interfering RNA (siRNA) with DZNep and by mixed with transfection reagent and osteoclast culture medium. The transfection mixture was then replaced every 2 days until the matured osteoclasts could be observed in the plate. The plate was then washed by PBS 1 times and fixed with 4% paraformaldehyde for 15 min. TRAP staining was performed immediately without light at 37 °C for 30 min. An optical microscope (Olympus, Tokyo, Japan) was used to image the photographs, and the TRAP-positive cells with more than three nuclei were considered osteoclasts and were quantified the area and number using the ImageJ software (NIH, Bethesda, MD, USA).

[3] = test system: primary BMMs; assay: CCK-8 cytotoxicity assay on BMMs
Description: Primary BMMs were obtained from whole bone marrow of male 6-week-old C57BL/6 mice. In brief, cells were extracted from the tibiae and femurs bone marrow and suspended in complete α-MEM (α-MEM supplemented with 30 ng/ml M-CSF, 10% FBS, and 1% penicillin/streptomycin). Then, the cell cultures were kept in a humid environment at 37 °C with 5% CO2 until they reached 90% confluence. The cytotoxic effects of DZNep on BMMs were then determined by the CCK-8 kit. Specifically, the BMMs were seeded into 96-well plates in triplicate at the density of 8 × 10^3 cells/well in presence of 100μL complete α-MEM for 24 h. After that, the cells were treated with increasing concentration of DZNep (control, 3.125, 6.25, 12.5, 25, 50, 100, 200 nM) for 24, 48, and 96 h. After treatment, 100μL medium contained 10% CCK-8 buffer was added to the wells and incubated in the dark at 37 °C for 2 h. The absorbance was then detected at 450 nm wavelength (650 nm reference) on a microplate reader.

[4] = test system: BMMs and calvarial OB co-culture; assay: Osteoblasts and osteoclasts co-cultivation, ALP staining; conditions: 7 days
Description: For the osteoblasts and osteoclasts co-culture system, calvarial OB isolated from day 1–3 pups were cultured for 24 h. Then the calvarial OB with complete α-MEM (α-MEM supplemented with 10% FBS, 1% penicillin/streptomycin) were seeded into 24-well plates at a density of 2 × 10^4 cells/well. After 3 days of cultivation, the medium was replaced by the complete α-MEM containing […] ascorbic acid and 5 mM β-glycerophosphate. On the same day, bone marrow monocytes were isolated from bone marrow and cultured in 10-cm dish. Another 3 days later, BMMs were seeded at a density of 4 × 10^4 cells/well into the 24-well plate containing the calvarial OB, and the α-MEM supplemented with 15% FBS, 1% penicillin/streptomycin, 1, 25-dihydroxy vitamin D3 (10 nM; CSN), and PGE2 (1 μM; CSN). After changed every 3 days for 2 times of the culture medium, the cells were then fixed and stained to observe the percent of the positive ALP staining area using a kit according to the manufacturer’s instructions (Beyotime, Shanghai, China). The percent of area was then quantified using ImageJ.

[5] = RANKL, M-CSF, DZNep ≤25 nM, 5 days, vs control

## Nc1nccc2c1ncn2C1C=C(CO)C(O)C1O (stereo not drawn) [DZNep, 3-Deazaneplanocin]
[1]; 25 nM, 0, 1, 3, 5 days
  expression of Trap, Ctsk, Atp6v0d2 (qPCR): significantly enhanced in a time-dependent manner
[1]; RANKL and DZNep treatment for 5 days
  mRNA expression of Foxc1 in BMMs: upregulated
[1]; indicated DZNep concentrations, 5 days
  expression of Calcr, c-FOS, Nfatc1, Trap, Ctsk, Atp6v0d2 (qPCR): upregulated in a dose-dependent manner
[2]; 25 nM, day 3–5, vs control
  number of osteoclasts, treatment at specific time points: increased the number of osteoclasts at the middle stage
[2]; [5]
  number of mature osteoclast nuclei: increased in a dose-dependent manner significantly
  number of mature osteoclasts: increased the number of mature osteoclasts in a DZNep dose-dependent manner
[3]; 25 nM, CCK-8 at 24, 48, and 96 h
  cytotoxicity on primary BMMs: no cytotoxicity was found
[3]; Mus musculus, at 96 h, CCK-8, read-out: inhibitory concentration (IC50) against BMMs
  IC50: 326 nM
[4]
  osteogenesis in co-culture system (ALP): still preserves the effect of promoting osteogenesis
